Reference: US20260315608A1, “Carrier Peptide Fragment and Use Thereof” (TOAGOSEI CO., LTD., priority 2022, published 2026)
Primed or numbered codes have the meaning given here. FAM″ = C-terminal FAM dye

System: NSC-34 cells
Test: Evaluation on cell membrane permeability by flow cytometry (median fluorescence intensity)
Format: cell-based, mouse
Conditions: for MFI (median fluorescence intensity): 25 μM in well, 0.42% DMSO, 20 hours at 37° C., 10% FBS-containing DMEM, detector FL2; for cell membrane permeability: 25 μM, 20 hours, FAM as foreign substance, in words
Method: As the eukaryotic cells, NSC-34 cells (mouse motor neuron-like hybrid cell line) were used and the cell membrane permeability of the samples 1 to 7 was analyzed. In Examples 1 to 7, the prepared sample solutions 1 to 7 were used, respectively, and in Example 8, a FAM solution was used.
The NSC-34 cells were cultured in 10% fetal bovine serum (FBS)-containing Dulbecco's modified Eagle's medium (DMEM (Cat No. 044-29765, manufactured by FUJIFILM Wako Pure Chemical Corporation)), which is a normal culture medium.
The NSC-34 cells that adhered to a culture plate were cleaned with PBS and then, a 0.25%-trypsin/EDTA solution was added thereto, and incubation was performed for three minutes at 37° C. After the incubation, the aforementioned 10% FBS-containing DMEM was added to deactivate trypsin and then, five-minute centrifugal separation was performed at 150×g to precipitate the cells. After the supernatant generated by the centrifugal separation was removed, the 10% FBS-containing DMEM was added to the precipitate (cell pellet) to prepare a cell suspension of about 2×10^5 cells/mL. The cell suspension was added by 1 mL to a well of a commercially available six-hole (well) plate (manufactured by AGC TECHNO GLASS Co., Ltd.) so as to seed the cell (about 2×10^5 cells/well). In addition, the 6 mM sample solution 1 was diluted with the 10% FBS-containing DMEM to prepare the sample solution 1 in which the concentration of the sample 1 was 50 μM. Then, 1 mL of the 50 μM sample solution 1 was added to the well (that is, so that the concentration of the sample 1 became 25 µM and the DMSO concentration became 0.42% in the culture solution in the well). After that, the cell was incubated for 20 hours at 37° C. under a 5% CO2 condition.
After the 20-hour incubation, the culture supernatant was removed from the well and the cells in the well were cleaned twice with 1 mL of PBS. Next, 200 μL of the 0.25% trypsin/EDTA solution was added to the well and the incubation was performed for three minutes at 37° C. After the incubation, 400 μL of the 10% FBS-containing DMEM was added to the well to deactivate the trypsin. Subsequently, the cell suspension in the well was transferred to a tube and the cells were collected. After that, 600 μL of PBS was added further to the well to clean the well. Then, PBS in the well was transferred to the tube, so that the cells remaining in the well were collected in the tube. This tube was subjected to five-minute centrifugal separation at 4° C. under a condition of 210×g. After the centrifugal separation, the supernatant was removed and the precipitate (cell pellet) was suspended (cleaned) with 1 mL of PBS, which was followed by the centrifugal separation under the same condition as that described above. After this operation was repeated twice, the supernatant was removed and thus, the cells (cell pellet) cultured in a culture medium containing the sample 1 were obtained.
Regarding the obtained cells (cell pellet), the cell membrane permeability of the sample 1 was analyzed using a flow cytometer. As the flow cytometer, On-Chip Flowcytometer (manufactured by On-Chip Biotechnologies Co., LTD.) was used.
For such an analysis, the obtained cell pellet was suspended with 100 μL of on-chip T buffer to prepare a cell suspension for analysis.
Using the aforementioned flow cytometer, gating based on forward scatter (FSC) and side scatter (SSC) was performed to set a gate about a cell group to be analyzed, and the fluorescence intensity was measured about the cell group in this gate. Note that the analysis was performed so that the cell group contained at least 10000 cells or more. The fluorescence intensity was measured using a fluorescence detector FL2 of the flow cytometer (optimum detection wavelength around 543 nm) capable of detecting the fluorescence wavelength of FAM. […]

| Substance | MFI (median fluorescence intensity) | cell membrane permeability |
| --- | --- | --- |
| Ac-KKRTLRKEDRKKR-FAM (Ac-KKRTLRKEDRKKR-{FAM}) [Example 2] | 15.7 | have the cell membrane permeability |
| Ac-KKRTLRKDEDERKKR-FAM (Ac-KKRTLRKDEDERKKR-{FAM}) [Example 6] | 15.2 |  |
| Ac-KKRTLRKEDEDEDRKKR-FAM (Ac-KKRTLRKEDEDEDRKKR-{FAM}) [Example 7] | 14.3 |  |
| Ac-KKRTLRKDDEERKKR-FAM (Ac-KKRTLRKDDEERKKR-{FAM}) [Example 5] | 14.8 |  |
| 5 (6)-carboxyfluorescein [Example 8, reference compound] | 11 |  |
| Ac-KKRTLRKEDEDRKKR-FAM (Ac-KKRTLRKEDEDRKKR-{FAM″}) [Example 3] | 13.8 |  |
| Ac-KKRTLRKEEDDRKKR-FAM (Ac-KKRTLRKEEDDRKKR-{FAM}) [Example 4] | 14.3 |  |
| Ac-KKRTLRKDERKKR-FAM (Ac-KKRTLRKDERKKR-{FAM}) [Example 1] | 16.3 | have the cell membrane permeability |
